The results in this text go back to patent publication US8551963B2, “Imidazolothiazole compounds and methods of use thereof” (Ambit Biosciences Corporation, priority 2008, dated 2013).

One data set deals with plasma protein. Description: Plasma protein binding assay (equilibrium dialysis). The note with it: 1 μM, equilibrium dialysis 16-20 hours at 37° C. The class given is in vitro ADME. The protocol:
Reagents: 1× Isotonic PBS (Mediatech, Inc., Herndon, Va.); 96 Well Equilibrium Dialyzer (Harvard Apparatus, Holliston, Mass.) and Animal plasma from species of interest.
1 μM solutions of test compound were prepared in both isotonic PBS and 10% animal plasma in isotonic PBS.
200 μl of each test solution was added to opposite sides of the equilibrium dialysis membrane.
Samples were incubated for 16-20 hours at 37° C.
After incubation, 100 μl sample was removed from the PBS side and diluted with 100 μl of 20% animal plasma in PBS.
100 μl sample was removed from the 10% animal plasma side and diluted with 100 μl of 10% animal plasma.
A calibration curve was prepared in 10% animal plasma to extrapolate unknown concentrations.
Samples were analyzed by LC/MS/MS.
50 μl of samples, calibration standards and quality control standards were extracted with 100 μl of acetonitrile containing 25 ng/ml of internal standard.
Calculations Calculate fraction unbound in 10% plasma Fu(10%)=1−(PC−PF)/PC) Convert 10% plasma value to 100% Fu(100%)=Fu10%/(10−9*Fu10%).
(In general: In equilibrium dialysis only unbound substance equilibrates across the membrane.)

The next data set deals with FLT3 (D835Y) (Homo sapiens (Human), UniProt P36888, D835Y). As to the kind of experiment: biochemical. Format: binding.
The next data set deals with P-glycoprotein (MDR1). Description: Bidirectional MDR1-MDCK permeability, Compound I-1 as a substrate. The note with it: dog, Surf.
The target of the next data set is CYP3A4 (Homo sapiens (Human), UniProt P08684). As to the kind of experiment: Inhibitory constant KI in human liver microsomes, CYP3A4. Format: in vitro ADME. The note with it: CYP3A4, global non-linear regression. The protocol:
(§1) A 2 mM stock of Compound I-1 was prepared in acetonitrile (ACN) and serially diluted 2-fold from 2000 μM to 15.63 μM in ACN. […] Individual human liver microsome preparations containing the substrate were then incubated with Compound I-1 (final concentration range 40 μM to 0.31 μM of Compound I-1) for a final incubation concentration of 0.5 mg/mL microsome, 75 mM KPO4, 6.5 mM MgCl2, 1 mM NADPH and 2% acetonitrile (ACN). The samples were incubated in a 37° C. shaking water bath for 20 minutes then quenched with ACN:water (75:25) containing internal standards propranolol at 0.3 ng/mL and cortisone at 0.3 ng/mL. After brief mixing, the plate was centrifuged and the supernate removed for analysis by LC/MS/MS (API 4000 Qtrap) for formation of 6-hydroxy-testosterone (CYP3A4), 4-hydroxy-mephenyloin (CYP2C19) or hydroxy-taxol (CYP2C8). The data was analyzed using global non-linear regression software (GraphPad Prism) and the overall fit of the data (R^2) was used to determine if Compound I-1 was a competitive, non-competitive, or uncompetitive inhibitor. In addition the data was plotted as a Lineweaver-Burke graph (1/V versus 1/S, where V is the […] and S is the substrate concentration) for each inhibitor concentration. Based on the location of convergence (competitive and non-competitive) or non convergence (uncompetitive) of the plots at each inhibitor concentration, the type of inhibition was determined.
(§2) Global non-linear regression allows analysis of all the individual inhibitor curves simultaneously and determines the best fit value for shared parameters between the data sets, in this case KI (or KI′). The results of the global nonlinear analysis of Compound I-1 inhibition of the CYP450 isoforms 3A4, 2C19 and 2C8 are shown in Table 12.

In a further data set the target is CYP2C8 (Homo sapiens (Human), UniProt P10632). Description: Inhibitory constant KI in human liver microsomes, CYP2C8. Format: in vitro ADME. The conditions noted are these: CYP2C8, global non-linear regression. The protocol: as §1, §2
A further data set addresses CYP2D4 (Homo sapiens, UniProt P10635). Description: Cyp enzyme inhibition assay in human liver microsomes, CYP2D4. The class given is in vitro ADME. The note with it: both sexes, pooled human liver microsomes, pH 7.4, probe dextromethorphan, CYP2D4, substrate dextromethorphan. The protocol:
The ability of the compound I-1 to inhibit human metabolizing enzymes CYP3A4, CYP2C9, […], CYP2C19 and CYP1A2, was assessed using those enzymes found collectively in human liver microsomes. The test compound I-1 was prepared as a solution in DMSO or acetonitrile and plated in duplicate rows of a 96-well plate (Nunc) for a final assay concentration of 40 μM in 0.2% DMSO (or 2% acetonitrile) in the first column and serially diluted two-fold going down the row. A known selective inhibitor of a given CYP enzyme listed in Table 8 was selected as the appropriate positive control. For each CYP enzyme inhibition assay, an appropriate enzyme-substrate mixture was prepared to afford a final assay concentration of 75 mM KPO4/pH 7.4, 6.5 mM MgCl2, 0.25 mg/mL pooled male and female human liver microsome (CellzDirect lot HMMC-PL020) with the amounts of the appropriate substrate for each CYP enzyme assay given in Table 8. The enzyme-substrate mixture was added to columns 1 through 10 and column 11 served as a negative control with enzyme solution lacking substrate. A solution of NADPH (Calbiochem) was then added to all rows except for one where NADPH would be added after the incubation period, in order to detect NADPH-independent non-CYP-mediated metabolism. The plate was briefly vortexed and left to shake in a 37° C. water bath for 20 minutes. […]
For orientation: Liver microsomes are a subcellular fraction often used to study metabolism.

The next data set concerns the target FLT3 (ITD) (Homo sapiens, UniProt P36888, ITD). As to the kind of experiment: biochemical. The class given is binding.
[1] abbreviates: read-out: Best Fit KI, Competitive.
The mark [2] stands for this setting: read-out: Best Fit KI, Non-competitive.
Setting [3] is: read-out: Best Fit KI′, Uncompetitive.

Like-named read-outs stand apart in the source and are kept apart here.

Chain of CYP3A4 (P08684 whole entry): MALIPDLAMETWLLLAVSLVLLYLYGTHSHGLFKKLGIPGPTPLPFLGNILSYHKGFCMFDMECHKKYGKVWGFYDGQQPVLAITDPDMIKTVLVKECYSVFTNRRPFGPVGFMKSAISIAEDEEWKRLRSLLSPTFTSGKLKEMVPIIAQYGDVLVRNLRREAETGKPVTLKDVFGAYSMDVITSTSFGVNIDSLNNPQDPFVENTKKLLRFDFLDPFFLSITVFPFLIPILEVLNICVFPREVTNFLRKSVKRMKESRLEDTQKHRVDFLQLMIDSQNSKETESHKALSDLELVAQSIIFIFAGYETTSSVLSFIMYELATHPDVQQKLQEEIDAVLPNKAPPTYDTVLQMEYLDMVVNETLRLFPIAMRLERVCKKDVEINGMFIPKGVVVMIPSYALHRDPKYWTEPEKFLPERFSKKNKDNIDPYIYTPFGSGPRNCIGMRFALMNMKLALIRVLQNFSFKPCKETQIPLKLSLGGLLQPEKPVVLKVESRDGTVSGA
Chain of CYP2C8 (P10632 whole entry): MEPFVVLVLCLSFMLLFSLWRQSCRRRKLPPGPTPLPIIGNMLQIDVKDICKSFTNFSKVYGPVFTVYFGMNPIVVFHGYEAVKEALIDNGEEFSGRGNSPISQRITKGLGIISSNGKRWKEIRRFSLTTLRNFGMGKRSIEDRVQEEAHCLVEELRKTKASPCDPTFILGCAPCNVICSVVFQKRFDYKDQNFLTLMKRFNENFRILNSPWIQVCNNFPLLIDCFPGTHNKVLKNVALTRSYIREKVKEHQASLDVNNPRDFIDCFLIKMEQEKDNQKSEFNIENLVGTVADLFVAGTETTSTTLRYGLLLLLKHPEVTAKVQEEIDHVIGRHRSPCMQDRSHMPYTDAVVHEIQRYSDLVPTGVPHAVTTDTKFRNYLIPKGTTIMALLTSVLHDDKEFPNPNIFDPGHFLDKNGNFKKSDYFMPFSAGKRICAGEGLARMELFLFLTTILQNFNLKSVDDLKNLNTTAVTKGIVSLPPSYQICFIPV
Chain of CYP2D4 (P10635 whole entry, looked up): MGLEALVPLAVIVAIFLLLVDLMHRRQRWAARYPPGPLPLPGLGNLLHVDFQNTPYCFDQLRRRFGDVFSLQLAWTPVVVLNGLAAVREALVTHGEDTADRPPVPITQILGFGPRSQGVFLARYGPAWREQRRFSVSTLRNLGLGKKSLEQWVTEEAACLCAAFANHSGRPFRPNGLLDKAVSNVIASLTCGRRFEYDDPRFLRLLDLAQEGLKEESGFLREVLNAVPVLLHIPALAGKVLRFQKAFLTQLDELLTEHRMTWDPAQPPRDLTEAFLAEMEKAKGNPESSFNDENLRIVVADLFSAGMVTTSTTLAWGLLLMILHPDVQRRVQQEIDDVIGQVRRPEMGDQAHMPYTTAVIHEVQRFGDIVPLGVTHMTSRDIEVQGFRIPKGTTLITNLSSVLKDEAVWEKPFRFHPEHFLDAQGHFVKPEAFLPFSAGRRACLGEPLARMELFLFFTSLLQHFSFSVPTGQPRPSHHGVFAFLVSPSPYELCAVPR
Procedure for FLT3 (D835Y): (§3) Competition binding assays used herein were developed, validated and performed as described in Fabian et al., Nature Biotechnology 2005, 23, 329-336. Kinases were produced as fusions to T7 phage (See, Fabian et al. or WO04/015142) or alternatively, the kinases were expressed in HEK-293 cells and subsequently tagged with DNA for PCR detection (See, WO08/005,310). […] The liganded beads were blocked with excess biotin and washed with blocking buffer (SeaBlock (Pierce), 1% BSA, 0.05% Tween 20, 1 mM DTT) to remove unbound ligand and to reduce non-specific binding. […] Test compounds were prepared as 100× stocks in DMSO and rapidly diluted into the aqueous environment. DMSO was added to control assays lacking a test compound. […] The kinase concentration in the eluates was measured by quantitative PCR. Each kinase was tested individually against each compound. Kds were determined using eleven serial threefold dilutions.
Procedure for FLT3 (ITD): as §3
Procedure for P-glycoprotein (MDR1): MDR1-MDCK cells were grown to confluence for 5-10 days on 1 μm filters in 24-well plate. Aliquots of DMSO solute stocks were diluted into Hank's balanced salt solution (HBSS) pH 7.4 containing 25 mM HEPES+−0.05% PS80 to give 0.5, 1.5 or 5.0 μM solute concentrations. Final concentrations of DMSO in the assayed samples ranged from 0.005% for the 0.5 μM concentration to 0.05% for the 5 μM concentration. […] The solute containing donor solutions were transferred to either the apical or basolateral chamber of the permeability diffusion apparatus. Receiver solutions consisted of Hank's balanced salt solution (HBSS) pH 7.4 containing 25 mM HEPES+0.05% PS80. The entire receiver solution was removed at 20 minute intervals and manually replaced with fresh buffer. The concentration of transported solute during each sampling interval was determined by HPLC/UV/MS. The standard curve was produced from serial dilutions of the dosing solution. D0 was a 50 μl aliquot of dosing solution from the donor well diluted with 450 μl of HBSS. The standard curve was produced from serial dilutions of the dosing solution (1:10, 1:25, 1:50, 1:100, 1:500 and 1:1000). Permeability coefficients were calculated for each sampling interval using the following equation:
[formula] Where VD=volume of donor (0.4 ml for Ap_Bl flux and 1.0 ml for Bl_Ap flux), A=surface area of the filter on which the monolayer was grown (0.31 cm2), MD(0)=mass in the donor at the beginning of the ith sampling interval, MR (t)=mass in the receiver at time t, and _t is the experimental interval (20 minutes). The apparent permeability, Papp, is then calculated as the average:
The average and standard deviation from the intervals is reported. Mass balance in the system was ascertained by comparing the sum of total transported solute and remaining donor solute with the starting mass of solute and is expressed as a percentage of donor solute at time zero. […] At the termination of the experiment, the cell monolayers are stored in the cold until the data is analyzed. After analysis, if mass balance falls below 70% in a given experiment, those monolayers are retrieved and extracted with acetonitrile. After separation of cellular debris, the extract is analyzed for recoverable solute of interest. […] All determinations were performed in duplicate.

As usually defined, the Kd is the free concentration of one partner at which half of the binding sites on the other are occupied at equilibrium, for simple one-to-one binding. Low readings indicate tighter binding, high ones weaker binding. The efflux ratio is the permeability from basolateral to apical divided by that in the opposite direction, in the common usage. By Papp A→B is commonly meant the apparent permeability from the apical to the basolateral side of a cell layer. The low end stands for poor permeation, the high end for ready permeation. Usually Ki stands for a dissociation constant, usually derived from enzyme kinetics or from competition with a known ligand. What is called IC50 is the concentration at which inhibition is half-maximal. A lower IC50 goes with greater potency in that assay. `CC(C)(CO)c1cc(NC(=O)Nc2ccc(-c3cn4c(n3)sc3cc(OCCN5CCOCC5)ccc34)cc2)no1` [Compound I-1, 1-[5-(2-hydroxy-1,1-dimethyl-ethyl)-isoxazol-3-yl]-3-{4-[7-(2-morpholin-4-yl-ethoxy)-benzo[d]imidazo[2,1-b]thiazol-2-yl]-phenyl}-urea]: in the data set on plasma protein, the “Percentage of unbound compound in 10% plasma” value is listed as 42.5%. Besides, the results for the dissociation constant Kd on FLT3 (D835Y) and at FLT3 (ITD) were 0.0055 µM and 0.0088 µM, respectively. Besides, the efflux ratio at 5 μM in the data set with P-glycoprotein (MDR1) (MDCK-MDR1, pH 7.4, Assymetry Index) was 1.2. The same compound had a Papp A→B at 5 μM in the data set with P-glycoprotein (MDR1) (MDCK-MDR1, pH 7.4, PeAP→BL) of 51 nm/s. Further, the Ki on CYP3A4 (setting [1]) amounted to 13.1 µM; on CYP3A4 (setting [2]), 48.9 µM; on CYP3A4 (setting [3]), 36 µM; at CYP2C8 (setting [1]) it was 22.1 µM; at CYP2C8 (setting [2]), 60.8 µM; at CYP2C8 (setting [3]), 37.7 µM. The compound also gave an IC50 at 20 min at CYP2D4 of more than 40 µM.
